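Cells were grown in 96-well plates and exposed to each compound for 48 hours at five concentrations; endpoints were interpolated linearly between bracketing concentrations, or set to the highest concentration if not reached. GI50 = concentration required for 50% inhibition of growth.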 The source made the active and inactive calls. Rule as the data show it: active = GI50 up to about 1.1 µM and inactive = higher.
Experiments:
Assay in all cases: inhibition of tumour cell growth, NCI panel, 48 h
SW-620 = tested on: SW-620
DMS-273 = tested on: DMS-273
SNB-75 = tested on: SNB-75
HL-60 = tested on: HL-60
MOLT-4 = tested on: MOLT-4
CAKI-1 = tested on: CAKI-1
CCRF-CEM = tested on: CCRF-CEM
OVCAR-5 = tested on: OVCAR-5
SK-MEL-2 = tested on: SK-MEL-2
DLD-1 = tested on: DLD-1
SK-OV-3 = tested on: SK-OV-3
RXF 393 = tested on: RXF 393
LOX IMVI = tested on: LOX IMVI
UACC-257 = tested on: UACC-257
TK-10 = tested on: TK-10
IGROV-1 = tested on: IGROV-1
HCT-116 = tested on: HCT-116
A498 = tested on: A498
MCF7 = tested on: MCF7
BT-549 = tested on: BT-549

| Compound | GI50 (SW-620) | GI50 (DMS-273) | GI50 (SNB-75) | GI50 (HL-60) | GI50 (MOLT-4) | GI50 (CAKI-1) | GI50 (CCRF-CEM) | GI50 (OVCAR-5) | GI50 (SK-MEL-2) | GI50 (DLD-1) | GI50 (SK-OV-3) | GI50 (RXF 393) | GI50 (LOX IMVI) | GI50 (UACC-257) | GI50 (TK-10) | GI50 (IGROV-1) | GI50 (HCT-116) | GI50 (A498) | GI50 (MCF7) | GI50 (BT-549) |
| --- | --- | --- | --- | --- | --- | --- | --- | --- | --- | --- | --- | --- | --- | --- | --- | --- | --- | --- | --- | --- |
| CC[P+]1(c2ccccc2)CCCCC1 | > 100 µM (inactive) | > 100 µM (inactive) | > 100 µM (inactive) | > 100 µM (inactive) | > 100 µM (inactive) | > 100 µM (inactive) | > 100 µM (inactive) | > 100 µM (inactive) | > 100 µM (inactive) | > 100 µM (inactive) | > 100 µM (inactive) | > 100 µM (inactive) | > 100 µM (inactive) | > 100 µM (inactive) | > 100 µM (inactive) | > 100 µM (inactive) | > 100 µM (inactive) |  |  |  |
| CCCCCCCCCCCCCS(=O)(=O)NCC(N)=O | > 100 µM (inactive) |  | 25.6 µM (inactive) | > 100 µM (inactive) |  |  | > 100 µM (inactive) | > 100 µM (inactive) | > 100 µM (inactive) | > 100 µM (inactive) | > 100 µM (inactive) | > 100 µM (inactive) | > 100 µM (inactive) | > 100 µM (inactive) | > 100 µM (inactive) | > 100 µM (inactive) | > 100 µM (inactive) | > 100 µM (inactive) |  |  |
| CC1=C(C(=O)CC(=O)C(=O)Nc2cccc(C)c2C)Sc2ccccc2N1 | > 100 µM (inactive) |  |  | > 100 µM (inactive) | > 100 µM (inactive) | > 100 µM (inactive) | > 100 µM (inactive) | > 100 µM (inactive) | > 100 µM (inactive) | > 100 µM (inactive) | > 100 µM (inactive) | > 100 µM (inactive) | > 100 µM (inactive) | > 100 µM (inactive) | > 100 µM (inactive) | > 100 µM (inactive) | > 100 µM (inactive) |  |  |  |
| CCCC(C(=O)OC)C1N/C(=N/C#N)N(Cc2ccccc2)C1=O (stereo unspecified) | > 100 µM (inactive) | > 100 µM (inactive) | 22.9 µM (inactive) | > 100 µM (inactive) | > 100 µM (inactive) | > 100 µM (inactive) | > 100 µM (inactive) | > 100 µM (inactive) | > 100 µM (inactive) | > 100 µM (inactive) | > 100 µM (inactive) | > 100 µM (inactive) | > 100 µM (inactive) | > 100 µM (inactive) | > 100 µM (inactive) | > 100 µM (inactive) | > 100 µM (inactive) |  |  |  |
| O=C(c1ccccc1)c1c(C(=O)c2ccccc2)c(-c2ccccc2)c2c(-c3ccccc3)sc(-c3ccccc3)c2c1-c1ccccc1 | > 100 µM (inactive) | > 100 µM (inactive) | > 100 µM (inactive) | > 100 µM (inactive) |  | > 100 µM (inactive) | > 100 µM (inactive) | > 100 µM (inactive) |  | > 100 µM (inactive) | > 100 µM (inactive) | > 100 µM (inactive) | > 100 µM (inactive) | > 100 µM (inactive) | > 100 µM (inactive) | > 100 µM (inactive) | > 100 µM (inactive) | > 100 µM (inactive) |  |  |
| N=C(N)NS(=O)(=O)c1ccc(NC(=O)c2cccc3c(N)c4ccccc4nc23)cc1 | > 100 µM (inactive) | > 100 µM (inactive) | 96.2 µM (inactive) |  | 42 µM (inactive) | > 100 µM (inactive) | 92.3 µM (inactive) | > 100 µM (inactive) | > 100 µM (inactive) | > 100 µM (inactive) | > 100 µM (inactive) | > 100 µM (inactive) | > 100 µM (inactive) | > 100 µM (inactive) | > 100 µM (inactive) | > 100 µM (inactive) | > 100 µM (inactive) | > 100 µM (inactive) |  |  |
| COc1ccccc1N1C(=O)C2c3[nH]c4ccccc4c3C3CCC(C(C)(C)C)CC3C2C1=O (stereo unspecified) | > 100 µM (inactive) | > 100 µM (inactive) | > 100 µM (inactive) | > 100 µM (inactive) | > 100 µM (inactive) |  | > 100 µM (inactive) |  |  | > 100 µM (inactive) | > 100 µM (inactive) | > 100 µM (inactive) |  | > 100 µM (inactive) |  | > 100 µM (inactive) | > 100 µM (inactive) | > 100 µM (inactive) |  |  |
| O=C(CC(=O)N1N=C(n2ccc3ccccc32)CC1c1ccccc1)Nc1cccc(Cl)c1 (stereo unspecified) | > 100 µM (inactive) | > 100 µM (inactive) | 60.4 µM (inactive) | > 100 µM (inactive) | > 100 µM (inactive) |  | > 100 µM (inactive) | > 100 µM (inactive) | > 100 µM (inactive) | > 100 µM (inactive) | > 100 µM (inactive) | > 100 µM (inactive) | 66.4 µM (inactive) | > 100 µM (inactive) | > 100 µM (inactive) | > 100 µM (inactive) | > 100 µM (inactive) | > 100 µM (inactive) |  |  |
| CC1=C(C(=O)Nc2ccccc2C)C(c2ccc(Cl)cc2)C(C(=O)Nc2ccccc2C)=C(C)N1 | > 100 µM (inactive) |  |  | > 100 µM (inactive) | > 100 µM (inactive) | > 100 µM (inactive) | > 100 µM (inactive) | > 100 µM (inactive) | > 100 µM (inactive) | > 100 µM (inactive) | > 100 µM (inactive) | > 100 µM (inactive) | > 100 µM (inactive) | > 100 µM (inactive) | > 100 µM (inactive) | > 100 µM (inactive) | > 100 µM (inactive) |  |  |  |
| O=C(NN1C(=O)C(Cl)C1c1cccc(Cl)c1)c1ccccc1O (stereo unspecified) |  | > 100 µM (inactive) | > 100 µM (inactive) | > 100 µM (inactive) | > 100 µM (inactive) |  | > 100 µM (inactive) |  | > 100 µM (inactive) |  | > 100 µM (inactive) | > 100 µM (inactive) | > 100 µM (inactive) | > 100 µM (inactive) | > 100 µM (inactive) | > 100 µM (inactive) | > 100 µM (inactive) | > 100 µM (inactive) |  |  |
| CCN(CC)CCC1(C2CCCCC2)CCC(=O)NC1=O (stereo unspecified) | > 100 µM (inactive) | > 100 µM (inactive) | > 100 µM (inactive) |  | > 100 µM (inactive) | > 100 µM (inactive) | > 100 µM (inactive) | > 100 µM (inactive) | > 100 µM (inactive) | > 100 µM (inactive) | > 100 µM (inactive) | > 100 µM (inactive) | > 100 µM (inactive) | > 100 µM (inactive) | > 100 µM (inactive) | > 100 µM (inactive) | > 100 µM (inactive) | > 100 µM (inactive) |  |  |
| CC1(C)CC(O)C2=C(O1)C(=O)c1ncccc1C2=O (stereo unspecified) | 1.87 µM (inactive) |  | 0.53 µM (active) | 1.7 µM (inactive) | 1.93 µM (inactive) | 2.24 µM (inactive) | 2.19 µM (inactive) | 1.89 µM (inactive) | 2.58 µM (inactive) |  | 13.7 µM (inactive) | 3.4 µM (inactive) | 1.58 µM (inactive) | 1.71 µM (inactive) | 6.46 µM (inactive) | 2.17 µM (inactive) | 2.28 µM (inactive) | 5.3 µM (inactive) | 2.12 µM (inactive) | 1.75 µM (inactive) |
| CCOc1cc2c(C(=O)CC)c(O)ccc2o1 | 57.3 µM (inactive) | > 100 µM (inactive) | > 91 µM (inactive) | 12.9 µM (inactive) | 58.1 µM (inactive) | > 100 µM (inactive) | 24.9 µM (inactive) | > 100 µM (inactive) | > 100 µM (inactive) |  | > 48.1 µM (inactive) | > 45.1 µM (inactive) | > 100 µM (inactive) | > 100 µM (inactive) | > 79.8 µM (inactive) | > 100 µM (inactive) | > 48 µM (inactive) | > 52.7 µM (inactive) |  |  |
| COc1ccc(OC)c(NC(=O)C2=C(C)NC(C)=C(C(=O)Nc3cc(OC)ccc3OC)C2c2ccccc2)c1 | > 100 µM (inactive) | > 100 µM (inactive) | 22.8 µM (inactive) |  | 6.5 µM (inactive) | > 100 µM (inactive) | 48.4 µM (inactive) | > 100 µM (inactive) | > 100 µM (inactive) | 21.7 µM (inactive) | > 100 µM (inactive) | > 100 µM (inactive) | > 100 µM (inactive) | > 100 µM (inactive) | > 100 µM (inactive) | > 100 µM (inactive) | 45.5 µM (inactive) | > 100 µM (inactive) |  |  |
| COc1cc2cnc3c4cc(O)ccc4ccc3c2cc1OC | 54.7 µM (inactive) |  | 22.6 µM (inactive) | 33.2 µM (inactive) | 31.1 µM (inactive) | > 100 µM (inactive) | 29.9 µM (inactive) | > 100 µM (inactive) | 26.4 µM (inactive) | > 100 µM (inactive) | > 100 µM (inactive) | 46.5 µM (inactive) | 42.6 µM (inactive) | 56.6 µM (inactive) | > 100 µM (inactive) | 75.7 µM (inactive) | > 100 µM (inactive) |  |  |  |
| O=C1CC(C2(O)C(=O)Nc3ccc([N+](=O)[O-])cc32)c2ccccc21 (stereo unspecified) | 28.2 µM (inactive) | 20.9 µM (inactive) | 39.5 µM (inactive) | 14.8 µM (inactive) | 20.7 µM (inactive) |  | 19.5 µM (inactive) | > 100 µM (inactive) | 16.6 µM (inactive) | 40 µM (inactive) | 36.5 µM (inactive) | 24.8 µM (inactive) | 16.8 µM (inactive) | 47.1 µM (inactive) | > 100 µM (inactive) | 17.8 µM (inactive) | 31.3 µM (inactive) | 72.8 µM (inactive) |  |  |
| CC(=N\N)/C(C)=N/N=C(C)/C(C)=N/N=C(C)/C(C)=N/N | > 100 µM (inactive) |  | > 100 µM (inactive) | 28.5 µM (inactive) | 0.1 µM (active) | > 100 µM (inactive) | > 100 µM (inactive) | > 100 µM (inactive) | > 100 µM (inactive) |  | > 100 µM (inactive) | > 100 µM (inactive) | > 100 µM (inactive) | > 100 µM (inactive) | > 100 µM (inactive) | > 100 µM (inactive) | > 100 µM (inactive) | > 100 µM (inactive) | > 100 µM (inactive) | > 100 µM (inactive) |

Source: ChEMBL document CHEMBL1201862, “PubChem BioAssay data set” (2004)
